Source: US20080274959A1, “Actinomadura Chromoprotein, Apoprotein and Gene Cluster” (Wyeth, priority 2004, published 2008)

How the values were obtained:
[1] = system: HCT116 cells; test: Uptake of FITC-tagged protein, fluorescent microscopy / flow cytometry; format: cell-based, human
From the text: To determine the mechanism by which the chromoprotein enters cells and exerts its biological activity, the chromoprotein was labeled with a fluorescent tag (FITC) using EZ-Label fluorescent labeling kit (Pierce Biotechnology), according to the manufacturer's recommendation. […] Uptake of labeled material by HCT116 colon carcinoma cells was studied by fluorescent microscopy.
To determine whether an intact complex of chromophore and apoprotein is required for cellular and nuclear entry, the chromoprotein and apoprotein were labeled with FITC. Uptake of labeled material was studied by fluorescent microscopy.
To determine whether the entry of chromoprotein into cells is mediated by a saturable (e.g. cell surface receptor-dependent) process, HCT116 cells were incubated with FITC-labeled chromoprotein (FIG. 28, right panel) or apoprotein (FIG. 28, left panel) in the absence or presence of 10-fold excess of unlabeled reagent (unlabelled chromoprotein or apoprotein, respectively). Cells were analysed by fluorescent microscopy (left) or flow cytometry (right). […] Numbers in the histograms are mean channel numbers (FITC fluorescence).
Other means by which a protein complex can enter cells is pinocytosis, where caveolae in the surface of the cell pinch off to form pinosomes that are free within the cytoplasm of the cell. Since pinocytosis is an energy-dependent process that requires a functional tubulin cytoskeletal network, we examined the effect of sodium azide, an energy uncoupling agent and nocodazole, an agent which disrupts the tubulin cytoskeleton on cellular uptake. HCT116 cells were treated with FITC-labeled apoprotein in the absence or presence of sodium azide or nocodazole.

[2] = system: histone H1 in HeLa cells; test: Digestion of histone H1 in HeLa cells, immunoblot; format: cell-based; settings: overnight at 37° C., anti-histone H1 immunoblot
Procedure: To study whether the digestion of histones by the chromoprotein occurs in intact cells, HeLa cells were incubated with compounds overnight at 37° C. Cell lysates were analysed by SDS-PAGE and protein immunoblotting using anti-histone H1 antibodies (Santa Cruz Biotechnologies). […] This activity can contribute to antitumor effects by digesting histones in chromatin, making the DNA more accessible for cleavage. This appears to be a unique activity of the chromoprotein enediynes.

[3] = system: KB-8-5; test: IC50 against P-GP expressing cells: KB-8-5; format: cell-based; settings: KB-8-5, P-GP level +; mean of two independent experiments
From the text: (§1) Human PGP (MDR1) is an ATP-dependent efflux pump which is capable of transporting many drugs across cell membranes. High level expression of this protein has been linked to multiple drug resistance of tumors. […] The protein component of the chromoprotein probably protects the chromophore from drug efflux mediated by MDR1, and may be responsible for the beneficial antitumor effects in colon cell lines which often express MDR1.

[4] = system: KB-V-1; test: IC50 against P-GP expressing cells: KB-V-1; format: cell-based; settings: KB-V-1, P-GP level +++; mean of two independent experiments
From the text: as §1

[5] = biological target: T1, Human PGP (MDR1) (Homo sapiens, UniProt P08183); test: Transport by P-GP (MDR-1); format: cell-based; settings: judged from IC50 in KB, KB-8-5, KB-V-1 cells
T1 construct: endogenous in cells; parental KB is P-GP negative
T1 sequence (P08183 whole entry): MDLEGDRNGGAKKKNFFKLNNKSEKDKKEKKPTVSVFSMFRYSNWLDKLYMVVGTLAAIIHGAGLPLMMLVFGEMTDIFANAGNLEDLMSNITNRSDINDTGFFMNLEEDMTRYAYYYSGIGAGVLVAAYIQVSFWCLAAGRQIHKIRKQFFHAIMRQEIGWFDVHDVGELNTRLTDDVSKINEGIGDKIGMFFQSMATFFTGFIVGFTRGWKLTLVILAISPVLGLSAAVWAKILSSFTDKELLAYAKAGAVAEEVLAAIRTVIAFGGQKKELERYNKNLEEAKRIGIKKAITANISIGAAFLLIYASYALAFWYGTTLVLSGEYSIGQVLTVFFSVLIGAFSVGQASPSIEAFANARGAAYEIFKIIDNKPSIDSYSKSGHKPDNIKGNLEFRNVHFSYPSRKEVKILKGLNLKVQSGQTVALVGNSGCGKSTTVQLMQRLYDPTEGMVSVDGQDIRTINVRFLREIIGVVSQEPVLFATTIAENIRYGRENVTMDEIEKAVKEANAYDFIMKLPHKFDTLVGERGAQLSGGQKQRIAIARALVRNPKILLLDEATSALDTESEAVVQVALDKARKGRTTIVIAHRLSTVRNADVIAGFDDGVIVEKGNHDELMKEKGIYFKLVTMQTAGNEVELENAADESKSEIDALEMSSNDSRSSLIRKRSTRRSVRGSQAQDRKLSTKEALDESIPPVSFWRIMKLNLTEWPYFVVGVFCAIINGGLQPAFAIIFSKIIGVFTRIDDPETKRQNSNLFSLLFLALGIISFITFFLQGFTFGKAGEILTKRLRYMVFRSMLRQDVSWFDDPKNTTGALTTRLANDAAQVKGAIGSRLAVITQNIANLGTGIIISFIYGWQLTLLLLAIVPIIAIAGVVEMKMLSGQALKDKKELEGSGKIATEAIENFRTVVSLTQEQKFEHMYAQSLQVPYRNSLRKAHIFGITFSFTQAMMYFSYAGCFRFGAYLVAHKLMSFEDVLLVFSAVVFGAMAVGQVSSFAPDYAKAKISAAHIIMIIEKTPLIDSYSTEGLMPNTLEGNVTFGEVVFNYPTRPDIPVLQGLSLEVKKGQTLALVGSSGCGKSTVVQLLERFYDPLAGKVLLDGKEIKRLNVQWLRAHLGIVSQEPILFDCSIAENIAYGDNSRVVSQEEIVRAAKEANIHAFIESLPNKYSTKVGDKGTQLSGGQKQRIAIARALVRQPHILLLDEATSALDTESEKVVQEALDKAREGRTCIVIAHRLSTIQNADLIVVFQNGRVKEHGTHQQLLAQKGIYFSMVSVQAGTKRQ
From the text: as §1

[6] = system: Histone H1; test: Digestion of histone H1, SDS-PAGE; format: biochemical; settings: 50 mM Tris-Cl, pH 7.5 overnight at 37° C.
Procedure: Histone H1 was incubated with various concentrations of the chromoprotein in 50 mM Tris-Cl, pH 7.5 overnight at 37° C. (FIG. 20) Digestions of histone were assessed by SDS-polyacrylamide gel electrophoresis (SDS-PAGE), followed by staining of the gel with GelCode Blue (Pierce Biotechnology, Inc, Rockford, Ill.).

[7] = system: KB; test: IC50 against P-GP expressing cells: KB; format: cell-based; settings: P-GP level −, mean of two independent experiments
From the text: as §1

[8] = system: human tumor cell line panel; test: In vitro anti-tumor activity, human tumor cell line panel; format: cell-based; settings: apoprotein alone

COC(=O)Nc1nc2ccc(C(=O)c3cccs3)cc2[nH]1 [nocodazole, reference compound]
effect on uptake of FITC-labeled apoprotein ([1]; HCT116 cells): inhibited uptake of label

bleomycin
histone H1 in cells after incubation [2]: No effect

calicheamicin [reference compound]
IC50 [3]: 0.021 µg/mL
IC50 [4]: >1 µg/mL
MDR1 substrate [5]: good substrate for MDR1
histone H1 in cells after incubation [2]: No effect
digestion of histone H1 [6]: did not cleave histone H1
IC50 [7]: 0.003 µg/mL

B1: apoprotein: protein component of the 21G792 chromoprotein without chromophore, SEQ ID NO:150, 12.92409 kDa by MALDI-MS (protein)
chain: DTVTVNYDCVGYPSDIAVTIDAPATAGVGDTATFEVSSVVTTGAPQDLPAGEVVTDMAIVVGGAQSGTITASGLTNEATPAGQPVNMVGGEAQITFTSAGSVTFTPSTTTQVDNGAQCTVVGEAPVGATTVVS
modifications: Actinomadura sp. 21G792
uptake, apoprotein compared with chromoprotein ([1]; FITC-labeled): similar
competition of uptake by 10-fold excess of unlabeled reagent ([1]; FITC-labeled, microscopy or flow cytometry): No competition of label
in vitro anti-tumor activity [8]: inactive
digestion of histone H1 [6]: no activity
